Measured values taken from ChEMBL document CHEMBL3045767, “Synthesis of novel 2-[4-(4-substitutedbenzamido/phenylacetamido)phenyl]benzothiazoles as antimicrobial agents” (2012).
Converted amounts (≈) assume the structure as drawn.

Legend:
Assay type in all cases: functional
Bacillus subtilis [1] = experiment: Antibacterial activity against ceftriaxon-resistant Bacillus subtilis after 24 hr by CLSI broth microdilution method
Bacillus subtilis [2] = experiment: Antibacterial activity against Bacillus subtilis ATCC 6633 after 24 hr by CLSI broth microdilution method
Staphylococcus aureus [3] = experiment: Antibacterial activity against methicillin-resistant Staphylococcus aureus after 24 hr by CLSI broth microdilution method
Escherichia coli [4] = experiment: Antibacterial activity against Escherichia coli producing extended spectrum beta lactamase enzyme after 24 hr by CLSI broth microdilution method
Klebsiella pneumoniae [5] = experiment: Antibacterial activity against Klebsiella pneumoniae producing extended spectrum beta lactamase enzyme after 24 hr by CLSI broth microdilution method
Pseudomonas aeruginosa [6] = experiment: Antibacterial activity against gentamicin-resistant Pseudomonas aeruginosa after 24 hr by CLSI broth microdilution method
Candida albicans [7] = experiment: Antifungal activity against Candida albicans ATCC 10231 after 48 hr by CLSI broth microdilution method; conditions: ATCC 10231, 48 h
Pseudomonas aeruginosa [8] = experiment: Antibacterial activity against Pseudomonas aeruginosa ATCC […] after 24 hr by CLSI broth microdilution method
Escherichia coli [9] = experiment: Antibacterial activity against Escherichia coli ATCC 25922 after 24 hr by CLSI broth microdilution method
Klebsiella pneumoniae [10] = experiment: Antibacterial activity against Klebsiella pneumoniae RSKK 574 after 24 hr by CLSI broth microdilution method
Staphylococcus aureus [11] = experiment: Antibacterial activity against Staphylococcus aureus ATCC 25923 after 24 hr by CLSI broth microdilution method
Candida albicans [12] = experiment: Antifungal activity against Candida albicans
Staphylococcus aureus [13] = experiment: Antibacterial activity against Staphylococcus aureus
Pseudomonas aeruginosa [14] = experiment: Ratio of ofloxacin MIC to compound MIC for gentamicin-resistant Pseudomonas aeruginosa
Pseudomonas aeruginosa [15] = experiment: Ratio of gentamycin sulfate MIC to compound MIC for gentamicin-resistant Pseudomonas aeruginosa

Row | Compound | MIC (Bacillus subtilis [1]) [µg/mL] | MIC (Bacillus subtilis [2]; ATCC 6633, 24 h) [µg/mL] | MIC (Staphylococcus aureus [3]) [µg/mL] | MIC (Escherichia coli [4]) [µg/mL] | MIC (Klebsiella pneumoniae [5]) [µg/mL] | MIC (Pseudomonas aeruginosa [6]) [µg/mL] | MIC (Candida albicans [7]) [µg/mL] | MIC (Pseudomonas aeruginosa [8]; ATCC 25853, 24 h) [µg/mL] | MIC (Escherichia coli [9]; ATCC 25922, 24 h) [µg/mL] | MIC (Klebsiella pneumoniae [10]; RSKK 574, 24 h) [µg/mL] | MIC (Staphylococcus aureus [11]; ATCC 25923, 24 h) [µg/mL] | MIC (Candida albicans [12]) [µg/mL] | MIC (Staphylococcus aureus [13]) [µg/mL] | MIC (Bacillus subtilis [2]) [µg/mL] | MIC (Pseudomonas aeruginosa [8]) [µg/mL] | MIC (Escherichia coli [9]) [µg/mL] | MIC (Klebsiella pneumoniae [10]) [µg/mL] | MIC (Staphylococcus aureus [11]) [µg/mL] | Ratio (Pseudomonas aeruginosa [14]) | Ratio (Pseudomonas aeruginosa [15])
1 | O=C(Nc1ccc(-c2nc3ccccc3s2)cc1)c1ccc([N+](=O)[O-])cc1 | 50 (≈ 133 µM) | 50 (≈ 133 µM) | 12.5 (≈ 33.3 µM) | 50 (≈ 133 µM) | 50 (≈ 133 µM) | 25 (≈ 66.6 µM) | 12.5 (≈ 33.3 µM) | 25 (≈ 66.6 µM) | 25 (≈ 66.6 µM) | 50 (≈ 133 µM) | 50 (≈ 133 µM) | – | – | – | – | – | – | – | – | –
2 | CCc1ccc(C(=O)Nc2ccc(-c3nc4ccccc4s3)cc2)cc1 | 50 (≈ 139 µM) | 50 (≈ 139 µM) | 6.25 (≈ 17.4 µM) | 50 (≈ 139 µM) | 50 (≈ 139 µM) | 25 (≈ 69.7 µM) | 12.5 (≈ 34.9 µM) | 25 (≈ 69.7 µM) | 25 (≈ 69.7 µM) | 25 (≈ 69.7 µM) | 50 (≈ 139 µM) | – | – | – | – | – | – | – | – | –
3 | CC(C)(C)c1ccc(C(=O)Nc2ccc(-c3nc4ccccc4s3)cc2)cc1 | 100 (≈ 259 µM) | 50 (≈ 129 µM) | 12.5 (≈ 32.3 µM) | 50 (≈ 129 µM) | 50 (≈ 129 µM) | 25 (≈ 64.7 µM) | 12.5 (≈ 32.3 µM) | 25 (≈ 64.7 µM) | 25 (≈ 64.7 µM) | 25 (≈ 64.7 µM) | 50 (≈ 129 µM) | – | – | – | – | – | – | – | – | –
4 | c1ccc(OCc2nc3ccccc3s2)cc1 [2-(PHENOXYMETHYL)BENZOTHIAZOLE] | – | – | – | – | – | – | – | – | – | – | – | 3.12 (≈ 12.9 µM) | 3.12 (≈ 12.9 µM) | – | – | – | – | – | – | –
5 | O=C(Cc1ccc(F)cc1)Nc1ccc(-c2nc3ccccc3s2)cc1 | 25 (≈ 69 µM) | 50 (≈ 138 µM) | 50 (≈ 138 µM) | 50 (≈ 138 µM) | 50 (≈ 138 µM) | 25 (≈ 69 µM) | 25 (≈ 69 µM) | 25 (≈ 69 µM) | 25 (≈ 69 µM) | 50 (≈ 138 µM) | 100 (≈ 276 µM) | – | – | – | – | – | – | – | – | –
6 | CC1(C)S[C@@H]2[C@H](NC(=O)[C@H](N)c3ccccc3)C(=O)N2[C@H]1C(=O)O.O.O.O [AMPICILLIN TRIHYDRATE] | 0.78 | 0.78 | – | 400 | – | – | – | – | 3.12 | – | 0.78 | – | – | – | – | – | – | – | – | –
7 | Clc1ccc(OCc2nc3ccccc3s2)cc1 | – | – | – | – | – | – | – | – | – | – | – | 3.12 (≈ 11.3 µM) | – | – | – | – | – | – | – | –
8 | C[C@@H]1[C@H](O)[C@@H](C)/C=C/C=C/C=C/C=C/C=C/C=C/C=C/[C@H](O[C@@H]2O[C@H](C)[C@@H](O)[C@H](N)[C@@H]2O)C[C@@H]2O[C@](O)(C[C@@H](O)C[C@@H](O)[C@H](O)CC[C@@H](O)C[C@@H](O)CC(=O)O[C@H]1C)C[C@H](O)[C@H]2C(=O)O [AMPHOTERICIN B] | – | – | – | – | – | – | 0.78 (≈ 0.844 µM) | – | – | – | – | – | – | – | – | – | – | – | – | –
9 | Cc1ccc(CC(=O)Nc2ccc(-c3nc4ccccc4s3)cc2)cc1 | 50 (≈ 139 µM) | 50 (≈ 139 µM) | 25 (≈ 69.7 µM) | 50 (≈ 139 µM) | 50 (≈ 139 µM) | 25 (≈ 69.7 µM) | 25 (≈ 69.7 µM) | 25 (≈ 69.7 µM) | 50 (≈ 139 µM) | 25 (≈ 69.7 µM) | 50 (≈ 139 µM) | – | – | – | – | – | – | – | – | –
10 | O=C(Nc1ccc(-c2nc3ccccc3s2)cc1)c1ccc(Cl)cc1 | 50 (≈ 137 µM) | 50 (≈ 137 µM) | 12.5 (≈ 34.3 µM) | 50 (≈ 137 µM) | 25 (≈ 68.5 µM) | 25 (≈ 68.5 µM) | 25 (≈ 68.5 µM) | 25 (≈ 68.5 µM) | 50 (≈ 137 µM) | 50 (≈ 137 µM) | 50 (≈ 137 µM) | – | – | – | – | – | – | – | – | –
11 | OC(Cn1cncn1)(Cn1cncn1)c1ccc(F)cc1F [FLUCONAZOLE] | – | – | – | – | – | – | 0.78 (≈ 2.55 µM) | – | – | – | – | – | – | – | – | – | – | – | – | –
12 | O=C(Nc1ccc(-c2nc3ccccc3s2)cc1)c1ccc(Br)cc1 | 100 (≈ 244 µM) | 50 (≈ 122 µM) | 25 (≈ 61.1 µM) | 50 (≈ 122 µM) | 50 (≈ 122 µM) | 25 (≈ 61.1 µM) | 25 (≈ 61.1 µM) | 25 (≈ 61.1 µM) | 50 (≈ 122 µM) | 50 (≈ 122 µM) | 50 (≈ 122 µM) | – | – | – | – | – | – | – | – | –
13 | O=C(Cc1ccc(Br)cc1)Nc1ccc(-c2nc3ccccc3s2)cc1 | 50 (≈ 118 µM) | 50 (≈ 118 µM) | 25 (≈ 59.1 µM) | 50 (≈ 118 µM) | 50 (≈ 118 µM) | 25 (≈ 59.1 µM) | 12.5 (≈ 29.5 µM) | 12.5 (≈ 29.5 µM) | 25 (≈ 59.1 µM) | 50 (≈ 118 µM) | 50 (≈ 118 µM) | – | – | – | – | – | – | – | – | –
14 | c1ccc2sc(CCC3CCCCC3)nc2c1 | – | – | – | – | – | – | – | – | – | – | – | 3.12 (≈ 12.7 µM) | – | – | – | – | – | – | – | –
15 | c1ccc(SCc2nc3ccccc3s2)cc1 [2-(PHENYLTHIOMETHYL)BENZO[D]THIAZOLE] | – | – | – | – | – | – | – | – | – | – | – | 3.12 (≈ 12.1 µM) | – | – | – | – | – | – | – | –
16 | GENTAMICIN SULFATE | 0.19 | – | 6.25 | 12.5 | 6.25 | 50 | – | – | – | – | – | – | – | 0.39 | 1.56 | 0.78 | 0.39 | 0.78 | – | –
17 | CO[C@H]1/C=C/O[C@@]2(C)Oc3c(C)c(O)c4c(O)c(c(/C=N/N5CCN(C)CC5)c(O)c4c3C2=O)NC(=O)/C(C)=C\C=C\[C@H](C)[C@H](O)[C@@H](C)[C@@H](O)[C@@H](C)[C@H](OC(C)=O)[C@@H]1C [RIFAMPIN] | 3.12 (≈ 3.8 µM) | 0.19 (≈ 0.231 µM) | 1.56 (≈ 1.9 µM) | – | – | – | – | – | – | – | 0.0225 (≈ 0.0273 µM) | – | – | – | – | – | – | – | – | –
18 | COc1ccc(CC(=O)Nc2ccc(-c3nc4ccccc4s3)cc2)cc1 | 50 (≈ 134 µM) | 12.5 (≈ 33.4 µM) | 12.5 (≈ 33.4 µM) | 25 (≈ 66.8 µM) | 50 (≈ 134 µM) | 6.25 (≈ 16.7 µM) | 12.5 (≈ 33.4 µM) | 25 (≈ 66.8 µM) | 12.5 (≈ 33.4 µM) | 12.5 (≈ 33.4 µM) | 50 (≈ 134 µM) | – | – | – | – | – | – | – | 3 | 3
19 | O=C(Cc1ccc(Cl)cc1)Nc1ccc(-c2nc3ccccc3s2)cc1 | 50 (≈ 132 µM) | 50 (≈ 132 µM) | 50 (≈ 132 µM) | 50 (≈ 132 µM) | 50 (≈ 132 µM) | 25 (≈ 66 µM) | 25 (≈ 66 µM) | 25 (≈ 66 µM) | 50 (≈ 132 µM) | 50 (≈ 132 µM) | 50 (≈ 132 µM) | – | – | – | – | – | – | – | – | –
20 | CC1COc2c(N3CCN(C)CC3)c(F)cc3c(=O)c(C(=O)O)cn1c23 (stereo not given) [OFLOXACIN] | 3.12 (≈ 8.65 µM) | 0.19 (≈ 0.526 µM) | 1.56 (≈ 4.32 µM) | 6.25 (≈ 17.3 µM) | 3.12 (≈ 8.65 µM) | 50 (≈ 138 µM) | – | 6.25 (≈ 17.3 µM) | 0.19 (≈ 0.526 µM) | 0.19 (≈ 0.526 µM) | 0.19 (≈ 0.526 µM) | – | – | – | – | – | – | – | – | –
21 | O=C(Nc1ccc(-c2nc3ccccc3s2)cc1)c1ccc(F)cc1 | 50 (≈ 144 µM) | 50 (≈ 144 µM) | 25 (≈ 71.8 µM) | 50 (≈ 144 µM) | 50 (≈ 144 µM) | 25 (≈ 71.8 µM) | 25 (≈ 71.8 µM) | 25 (≈ 71.8 µM) | 50 (≈ 144 µM) | 25 (≈ 71.8 µM) | 50 (≈ 144 µM) | – | – | – | – | – | – | – | – | –
22 | c1ccc(CCc2nc3ccccc3s2)cc1 [2-PHENETHYLBENZO[D]THIAZOLE] | – | – | – | – | – | – | – | – | – | – | – | 3.12 (≈ 13 µM) | – | – | – | – | – | – | – | –
